We go through two molecules from patent US8088820B2, “Substituted tetracycline compounds for the treatment of malaria” (Paratek Pharmaceuticals, Inc., priority 2001, dated 2012).

Where only a bound is given, the exact number is not on record here.

This data set is described as follows: in vitro. Conditions: African green monkey (COS-1); Chinese hamster (CHO).

The molecule `CN(C)c1ccc(O)c2c1C[C@H]1C[C@H]3[C@H](N(C)C)C(O)=C(C(N)=O)C(=O)[C@@]3(O)C(O)=C1C2=O` [minocycline] had an IC50 at 24 h of more than 25 µg/mL.
In turn, `C[C@H]1c2cccc(O)c2C(=O)C2=C(O)[C@]3(O)C(=O)C(C(N)=O)=C(O)[C@@H](N(C)C)[C@@H]3[C@@H](O)[C@@H]21` [doxycycline] had an IC50 at 24 h of more than 25 µg/mL.

For orientation: IC50 means the concentration that gives 50% inhibition.
